These results are taken from PubChem BioAssay AID330 (DTP/NCI, 2004).

Each structure is given as a SMILES string. Values joined by “and” are separate entries in the source; they are usually repeats but may differ in a detail not shown here. Equal values may be shown once. Toxic doses and inconclusive results are not listed.

This assay has as its system P388 leukemia ip, CD2F1 mice, survival T/C. The experiment in a line: NCI In Vivo Anticancer Drug Screen. Data for tumor model P388 Leukemia (intraperitoneal) in CD2F1 (CDF1) mice. Conditions: endpoint: median survival time, higher = longer survival. The essentials: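 Mice carrying the transplanted tumor received test compound or vehicle. Survival was recorded in each group, and the value is the treated-group measurement divided by that of the vehicle-treated control group.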

On to `O=C(O)c1ccccc1.O=C(O)c1ccccc1.O=C(O)c1ccccc1.O=C(O)c1ccccc1.[Cu].[Cu]`, for which the T/C is, setting by setting: (dose: 7.5 mg/kg/injection, schedule: Q01DX005 (ip), vehicle: Klucel (hydroxypropylcellulose) (HPC)) 99 % of control; (dose: 15.0 mg/kg/injection, schedule: Q01DX005 (ip), vehicle: Klucel (hydroxypropylcellulose) (HPC)) 97 % of control.

Turning to `CCCCCCCCCCCCCCCC[N+](C)(C)CCNC(=O)C1CSC(C)(C)N1C=O` (centres undefined), the T/C is, setting by setting: (dose: 12.5 mg/kg/injection, schedule: Q01DX009 (ip), vehicle: saline) 106 % of control; (dose: 25.0 mg/kg/injection, schedule: Q01DX009 (ip), vehicle: saline) 97 % of control.

On to `CNc1ccccc1CO`, for which the T/C runs as follows: (dose: 100.0 mg/kg/injection, schedule: Q04DX003 (ip), vehicle: other) 95 % of control; (dose: 200.0 mg/kg/injection, schedule: Q04DX003 (ip), vehicle: other) 95 % of control; (dose: 400.0 mg/kg/injection, schedule: Q04DX003 (ip), vehicle: other) 90 % of control.

In the case of `Cc1ccc(NC(=O)CCC(=O)C(C)C(=O)c2ccccc2)cc1C` (centres undefined), the T/C was 105 % of control (dose: 60.0 mg/kg/injection, schedule: Q01DX005 (ip), vehicle: saline with Tween-80); 105 % of control (dose: 120.0 mg/kg/injection, schedule: Q01DX005 (ip), vehicle: saline with Tween-80); 109 % of control (dose: 240.0 mg/kg/injection, schedule: Q01DX005 (ip), vehicle: saline with Tween-80).

On to `N#Cc1ccc(NN=O)nc1`, for which the T/C by setting is: (dose: 3.13 mg/kg/injection, schedule: Q01DX009 (ip), vehicle: water) 116 % of control and 123 % of control; (dose: 6.25 mg/kg/injection, schedule: Q01DX009 (ip), vehicle: water) 159 % of control; (dose: 12.5 mg/kg/injection, schedule: Q01DX009 (ip), vehicle: water) 151 % of control and 169 % of control; (dose: 25.0 mg/kg/injection, schedule: Q01DX009 (ip), vehicle: water) 194 % of control and 268 % of control.

For `CCCCCCCCCCCCCC#CC(=O)OC`, the T/C is 104 % of control (dose: 50.0 mg/kg/injection, schedule: Q01DX009 (ip), vehicle: saline); 106 % of control (dose: 100.0 mg/kg/injection, schedule: Q01DX009 (ip), vehicle: saline); 106 % of control (dose: 200.0 mg/kg/injection, schedule: Q01DX009 (ip), vehicle: saline).

As to `CO[C@@]12[C@H](COC(N)=O)C3=C(C(=O)C(C)=C(N)C3=O)N1C[C@@H]1N[C@@H]12`, the T/C is, setting by setting: (dose: 0.25 mg/kg/injection, schedule: Q01DX009 (ip), vehicle: saline with Tween-80) 160 % of control and 166 % of control; (dose: 0.5 mg/kg/injection, schedule: Q01DX009 (ip), vehicle: saline with Tween-80) 150 % of control and 157 % of control and 210 % of control; (dose: 0.5 mg/kg/injection, schedule: Q04DX003 (ip), vehicle: saline) 112 % of control; (dose: 0.65 mg/kg/injection, schedule: Q04DX002 (ip), vehicle: saline) 160 % of control; (dose: 0.75 mg/kg/injection, schedule: Q04DX003 (ip), vehicle: saline) 150 % of control and 163 % of control; (dose: 0.75 mg/kg/injection, schedule: Q04DX003 (ip), vehicle: water) 170 % of control. Moreover, the T/C runs as follows: (dose: 0.78 mg/kg/injection, schedule: Q04DX003 (ip), vehicle: saline) 152 % of control and 153 % of control; (dose: 0.97 mg/kg/injection, schedule: Q04DX003 (ip), vehicle: saline) 150 % of control; (dose: 1.0 mg/kg/injection, schedule: Q01DX009 (ip), vehicle: saline with Tween-80) 166 % of control and 169 % of control; (dose: 1.08 mg/kg/injection, schedule: Q04DX002 (ip), vehicle: saline) 164 % of control; (dose: 1.1 mg/kg/injection, schedule: Q04DX003 (ip), vehicle: water) 159 % of control; (dose: 1.3 mg/kg/injection, schedule: Q04DX002 (ip), vehicle: saline) 163 % of control. Further, the T/C by setting is: (dose: 1.3 mg/kg/injection, schedule: Q04DX003 (ip), vehicle: saline) 174 % of control and 180 % of control; (dose: 1.5 mg/kg/injection, schedule: Q04DX003 (ip), vehicle: saline) 155 % of control and 161 % of control and 183 % of control; (dose: 1.5 mg/kg/injection, schedule: Q04DX003 (ip), vehicle: water) 163 % of control and 200 % of control; (dose: 1.62 mg/kg/injection, schedule: Q04DX003 (ip), vehicle: saline) 163 % of control; (dose: 1.8 mg/kg/injection, schedule: Q04DX002 (ip), vehicle: saline) 175 % of control; (dose: 1.8 mg/kg/injection, schedule: Q04DX003 (ip), vehicle: water) 174 % of control. Besides, the T/C is 104 % of control and 120 % of control (dose: 2.0 mg/kg/injection, schedule: Q01DX009 (ip), vehicle: saline with Tween-80); 163 % of control (dose: 2.0 mg/kg/injection, schedule: Q04DX003 (ip), vehicle: saline); 162 % of control (dose: 2.16 mg/kg/injection, schedule: Q04DX002 (ip), vehicle: saline); 155 % of control (2×) and 174 % of control (dose: 2.16 mg/kg/injection, schedule: Q04DX003 (ip), vehicle: saline); 183 % of control and 204 % of control (dose: 2.7 mg/kg/injection, schedule: Q04DX003 (ip), vehicle: saline); 169 % of control (dose: 3.0 mg/kg/injection, schedule: Q01DX001 (ip), vehicle: saline). The T/C is 212 % of control (dose: 3.0 mg/kg/injection, schedule: Q04DX002 (ip), vehicle: saline); 190 % of control and 197 % of control (dose: 3.0 mg/kg/injection, schedule: Q04DX003 (ip), vehicle: water); 183 % of control (dose: 3.5 mg/kg/injection, schedule: Q01DX001 (ip), vehicle: carboxymethylcellulose (CMC)); 175 % of control and 176 % of control (dose: 3.6 mg/kg/injection, schedule: Q01DX001 (ip), vehicle: water); 159 % of control (dose: 3.6 mg/kg/injection, schedule: Q04DX002 (ip), vehicle: saline); 184 % of control and 220 % of control and 235 % of control (dose: 3.6 mg/kg/injection, schedule: Q04DX003 (ip), vehicle: saline). The T/C by setting is: (dose: 4.0 mg/kg/injection, schedule: Q01DX001 (ip), vehicle: saline) 156 % of control and 167 % of control; (dose: 4.0 mg/kg/injection, schedule: Q04DX003 (ip), vehicle: saline) 150 % of control; (dose: 4.4 mg/kg/injection, schedule: Q01DX001 (ip), vehicle: saline) 158 % of control; (dose: 4.5 mg/kg/injection, schedule: Q04DX003 (ip), vehicle: saline) 219 % of control; (dose: 4.7 mg/kg/injection, schedule: Q01DX001 (ip), vehicle: saline) 174 % of control; (dose: 5.0 mg/kg/injection, schedule: Q04DX002 (ip), vehicle: saline) 157 % of control. Also, the T/C was 228 % of control (dose: 5.0 mg/kg/injection, schedule: Q04DX003 (ip), vehicle: water); 191 % of control (dose: 5.3 mg/kg/injection, schedule: Q01DX001 (ip), vehicle: carboxymethylcellulose (CMC)); 184 % of control and 206 % of control and 216 % of control (dose: 5.4 mg/kg/injection, schedule: Q01DX001 (ip), vehicle: water); 162 % of control and 166 % of control and 255 % of control (dose: 6.0 mg/kg/injection, schedule: Q01DX001 (ip), vehicle: saline); 120 % of control (dose: 6.0 mg/kg/injection, schedule: Q04DX002 (ip), vehicle: saline); 188 % of control (dose: 6.7 mg/kg/injection, schedule: Q01DX001 (ip), vehicle: saline). The T/C is 165 % of control (dose: 7.0 mg/kg/injection, schedule: Q01DX001 (ip), vehicle: saline); 122 % of control (dose: 7.5 mg/kg/injection, schedule: Q04DX003 (ip), vehicle: saline); 178 % of control and 222 % of control and 280 % of control (dose: 8.0 mg/kg/injection, schedule: Q01DX001 (ip), vehicle: water); 87 % of control (dose: 8.3 mg/kg/injection, schedule: Q04DX003 (ip), vehicle: water).

Take `S`: the T/C reads like this: (dose: 100.0 mg/kg/injection, schedule: Q01DX009 (ip), vehicle: saline with Tween-80) 113 % of control; (dose: 200.0 mg/kg/injection, schedule: Q01DX009 (ip), vehicle: saline with Tween-80) 115 % of control; (dose: 400.0 mg/kg/injection, schedule: Q01DX009 (ip), vehicle: saline with Tween-80) 113 % of control.

Take `Cc1cc(=O)oc2cc3oc4c(c3cc12)CCCC4`: the T/C runs as follows: (dose: 50.0 mg/kg/injection, schedule: Q01DX005 (ip), vehicle: Klucel (hydroxypropylcellulose) (HPC)) 97 % of control; (dose: 100.0 mg/kg/injection, schedule: Q01DX005 (ip), vehicle: Klucel (hydroxypropylcellulose) (HPC)) 92 % of control; (dose: 200.0 mg/kg/injection, schedule: Q01DX005 (ip), vehicle: Klucel (hydroxypropylcellulose) (HPC)) 88 % of control.
